Laboratory results published in ChEMBL document CHEMBL1201862, “PubChem BioAssay data set” (2004).
Active and inactive are the calls of the source.

Tests used:
BJ [1] = assay: BJ-TERT fibroblast viability loss – cell-based, RAS-independent, luminescence, dose response (AID 1933); type: functional; conditions: Homo sapiens
BJ [2] = assay: cells; type: functional, cell-based; conditions: Homo sapiens
BJ [3] = assay: BJ-TERT-LT-ST fibroblast viability loss – cell-based, RAS-independent, luminescence, dose response (AID 1935); type: functional; conditions: Homo sapiens;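 also: BJ fibroblasts immortalized with TERT plus LT and ST oncogenes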
[4] = DRD fibroblast viability loss – cell-based, non-viral oncogenic, luminescence, dose response (AID 1934); type: functional; conditions: Homo sapiens
[5] = target: T1, Microphthalmia-associated transcription factor (Homo sapiens, UniProt O75030); assay: reducers of TRPM1 reporter luminescence, concentration series – cell-based, SK-MEL-5, cherry-picked, set 3, MITF inhibitor project, dose response (AID 493073); type: functional;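 also: SK-MEL-5 melanoma cells with luciferase driven by the MITF target TRPM1 promoter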
T1 sequence (O75030 whole entry): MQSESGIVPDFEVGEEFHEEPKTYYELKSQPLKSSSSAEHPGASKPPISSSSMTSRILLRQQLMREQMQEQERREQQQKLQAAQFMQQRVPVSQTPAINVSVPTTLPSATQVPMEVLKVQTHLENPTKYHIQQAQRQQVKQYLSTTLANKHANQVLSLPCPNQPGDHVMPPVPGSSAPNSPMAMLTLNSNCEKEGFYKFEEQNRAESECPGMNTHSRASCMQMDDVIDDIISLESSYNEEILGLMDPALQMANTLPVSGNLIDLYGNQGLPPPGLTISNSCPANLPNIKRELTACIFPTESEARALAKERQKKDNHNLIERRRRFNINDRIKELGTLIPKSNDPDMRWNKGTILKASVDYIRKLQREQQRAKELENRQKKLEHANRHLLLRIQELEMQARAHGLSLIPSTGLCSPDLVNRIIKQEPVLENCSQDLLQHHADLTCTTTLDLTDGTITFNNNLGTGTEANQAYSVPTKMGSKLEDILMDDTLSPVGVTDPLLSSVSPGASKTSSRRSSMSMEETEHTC

Vero = assay: cells; type: functional; conditions: Chlorocebus sabaeus
Caspase-6 = target: T2, Caspase-6 (Homo sapiens, UniProt P55212); assay: inhibition of CASP6 peptide cleavage – biochemical, VEID-R110 fluorescence, cherry-pick, dose response (AID 720632)
T2 sequence (P55212 whole entry): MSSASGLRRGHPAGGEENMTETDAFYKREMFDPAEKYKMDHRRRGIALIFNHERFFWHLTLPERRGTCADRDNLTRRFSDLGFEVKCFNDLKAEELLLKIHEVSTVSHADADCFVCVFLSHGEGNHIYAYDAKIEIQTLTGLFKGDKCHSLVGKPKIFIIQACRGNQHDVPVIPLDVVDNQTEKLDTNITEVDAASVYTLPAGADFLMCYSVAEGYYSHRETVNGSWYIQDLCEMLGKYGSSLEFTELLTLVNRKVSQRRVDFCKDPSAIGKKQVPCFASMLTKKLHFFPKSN

[6] = A549 cell cytotoxicity, dose response, cytotoxicity control, plate reader, cherry-pick, antagonist series (AID 743412); type: functional, cell-based
[7] = toxicity toward HepG2 liver cells – cell-based, plate reader, cherry-pick, antagonist series, cytotoxicity control, dose response (AID 743416); type: functional
[8] = blockers of bursicon-stimulated LGR2 cAMP reporter – cell-based, HEK293, CRE-luciferase reporter, cherry pick, set 2, dose response (AID 743343); type: functional;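 also: transfected cells were stimulated with diluted bursicon conditioned medium after compound addition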
[9] = blockade of melanocortin 4 receptor signaling – cell-based, plate reader, cherry pick, counter-screen for LGR2 antagonist project, dose response (AID 743444); type: functional;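 also: transfected HEK 293 cells stimulated with alpha-MSH peptide; potency of inhibitors of the alpha-MSH evoked signal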
[10] = viability loss in HEK293 cells – cell-based, plate reader, cherry-picked samples, cytotoxicity control, dose response (AID 743446); type: functional
Cytochrome P450 3A4 = Cytochrome P450 3A4 (Homo sapiens, UniProt P08684);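 also: CYP3A4 tested as one member of a cytochrome P450 panel screen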
Cytochrome P450 2C9 = Cytochrome P450 2C9 (Homo sapiens, UniProt P11712)
[11] = growth inhibition of yeast DHODH-expressing 3D7 parasites – SYBR Green, dry powder samples, dose response (AID 1159570); type: functional, cell-based;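 also: parasite growth measured after 72 hours of compound exposure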
[12] = P. falciparum Dd2 growth inhibitors, dose response, SYBR Green, cherry-picked samples (AID 1159567); type: functional, cell-based
[13] = Dd2 malaria parasite growth inhibition potency – SYBR Green, dry powder samples, dose response (AID 1159566); type: functional, cell-based;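 also: potency for growth inhibition with lower SYBR green DNA signal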
[14] = growth inhibition of PfATP4-mutant resistant parasites – NITD609-resistant line, SYBR Green, dry powder, dose response (AID 1159571); type: functional, cell-based;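 also: parasites synchronized at ring stage by sorbitol before testing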
HeLa = assay: ATP-based viability loss in HeLa cells – cell-based, CellTiter-Glo luminescence, cherry-pick samples, cytotoxicity control for MITF activator project, dose response (AID 540259); type: functional; conditions: Homo sapiens
Aminopeptidase N = target: T3, Aminopeptidase N (Plasmodium falciparum FcB1/Columbia, UniProt O96935); assay: malaria alanyl aminopeptidase activity blockers – biochemical, fluorogenic H-Leu-NHMec substrate, 1536-well (AID 1445); set-up: species or system Plasmodium falciparum 3D7, 3D7
T3 sequence (O96935 whole entry): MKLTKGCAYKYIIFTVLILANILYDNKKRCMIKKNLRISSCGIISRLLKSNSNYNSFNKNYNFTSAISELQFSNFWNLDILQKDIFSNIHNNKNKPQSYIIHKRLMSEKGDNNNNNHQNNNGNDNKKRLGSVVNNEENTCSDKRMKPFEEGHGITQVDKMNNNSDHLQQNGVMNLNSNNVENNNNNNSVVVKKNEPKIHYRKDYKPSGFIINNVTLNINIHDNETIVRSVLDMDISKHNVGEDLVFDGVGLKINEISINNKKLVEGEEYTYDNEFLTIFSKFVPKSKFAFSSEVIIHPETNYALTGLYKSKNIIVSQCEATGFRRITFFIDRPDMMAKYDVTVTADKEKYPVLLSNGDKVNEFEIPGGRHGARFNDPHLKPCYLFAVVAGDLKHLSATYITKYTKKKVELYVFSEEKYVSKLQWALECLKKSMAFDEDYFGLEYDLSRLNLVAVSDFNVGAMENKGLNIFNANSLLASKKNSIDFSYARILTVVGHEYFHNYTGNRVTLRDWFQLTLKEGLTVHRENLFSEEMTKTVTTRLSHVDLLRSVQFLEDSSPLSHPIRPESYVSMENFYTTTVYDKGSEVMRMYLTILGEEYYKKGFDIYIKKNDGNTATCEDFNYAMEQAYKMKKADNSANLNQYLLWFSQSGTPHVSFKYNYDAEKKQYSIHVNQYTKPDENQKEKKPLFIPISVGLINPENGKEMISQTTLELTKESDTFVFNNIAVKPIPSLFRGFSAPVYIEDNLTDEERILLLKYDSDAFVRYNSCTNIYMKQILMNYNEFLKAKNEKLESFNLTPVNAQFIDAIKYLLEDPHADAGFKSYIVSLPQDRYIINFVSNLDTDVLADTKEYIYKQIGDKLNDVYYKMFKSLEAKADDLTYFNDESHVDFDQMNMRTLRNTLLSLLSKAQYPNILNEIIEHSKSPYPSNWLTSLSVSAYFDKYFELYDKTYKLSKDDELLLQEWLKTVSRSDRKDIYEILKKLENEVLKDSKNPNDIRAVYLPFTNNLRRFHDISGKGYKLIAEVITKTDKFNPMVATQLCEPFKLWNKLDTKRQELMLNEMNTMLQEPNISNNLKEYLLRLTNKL

[15] = viability loss in THP-1 monocytes – THP-1 cells, cytotoxicity control for Vif-APOBEC3G degradation inhibitor project, dose response (AID 1117359); type: functional; conditions: THP-1
Cytochrome P450 1A2 = target: T4, Cytochrome P450 1A2 (Homo sapiens, UniProt P05177);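 also: PubChem cytochrome P450 panel assay, CYP1A2 panel member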
T4 sequence (P05177 whole entry): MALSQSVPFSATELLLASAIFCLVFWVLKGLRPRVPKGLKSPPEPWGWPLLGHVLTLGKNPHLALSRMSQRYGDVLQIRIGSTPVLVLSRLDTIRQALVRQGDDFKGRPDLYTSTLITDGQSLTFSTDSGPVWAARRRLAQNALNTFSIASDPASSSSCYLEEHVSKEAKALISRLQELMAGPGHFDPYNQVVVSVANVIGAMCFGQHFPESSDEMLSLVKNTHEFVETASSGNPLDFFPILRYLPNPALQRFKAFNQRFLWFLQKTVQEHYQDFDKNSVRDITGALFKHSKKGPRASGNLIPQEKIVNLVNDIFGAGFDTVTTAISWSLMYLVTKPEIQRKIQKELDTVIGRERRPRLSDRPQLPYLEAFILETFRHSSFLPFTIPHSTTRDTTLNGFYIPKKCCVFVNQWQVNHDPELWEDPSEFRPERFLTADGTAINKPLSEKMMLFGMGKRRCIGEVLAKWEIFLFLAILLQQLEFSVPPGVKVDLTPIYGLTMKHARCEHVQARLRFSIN

[16] = HEK-293T viability loss after treatment – luminescence, T-cell screen hits, cytotoxicity control for TCR NF-kB inhibitor project, dose response (AID 489026); type: functional, cell-based;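 also: cells exposed to compound about 14 hours before the viability readout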
Cytochrome P450 2C19 = Cytochrome P450 2C19 (Homo sapiens, UniProt P33261); assay: Cytochrome panel assay with activity outcomes. Panel member name: p450-cyp2c19 Compounds with AC50 equal or less than 10 uM are considered active; type: functional; conditions: read-out: AC50
[17] = microbe, parasite or virus in culture; type: functional; conditions: Mycobacterium tuberculosis
[18] = target: DNA dC->dU-editing enzyme APOBEC-3A (Homo sapiens, UniProt P31941); assay: Dose Response confirmation of small molecule APOBEC3A DNA Deaminase Inhibitors via a fluorescence-based single-stranded DNA deaminase assay. [Related pubchem assays (depositor defined):AID493011, AID493024]; type: functional
[19] = target: DNA dC->dU-editing enzyme APOBEC-3G (Homo sapiens, UniProt Q9HC16); type: functional;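 also: Dose-response counterscreen measuring inhibition of APOBEC3G DNA deaminase activity, run while confirming APOBEC3A inhibitors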
[20] = target: T5, Carboxy-terminal domain RNA polymerase II polypeptide A small phosphatase 1 (Homo sapiens, UniProt Q9GZU7); assay: CTDSP1 inhibitors, concentration-response, biochemical, absorbance readout, ultra-high-throughput screen actives (AID 540297); type: functional
T5 sequence (Q9GZU7 whole entry): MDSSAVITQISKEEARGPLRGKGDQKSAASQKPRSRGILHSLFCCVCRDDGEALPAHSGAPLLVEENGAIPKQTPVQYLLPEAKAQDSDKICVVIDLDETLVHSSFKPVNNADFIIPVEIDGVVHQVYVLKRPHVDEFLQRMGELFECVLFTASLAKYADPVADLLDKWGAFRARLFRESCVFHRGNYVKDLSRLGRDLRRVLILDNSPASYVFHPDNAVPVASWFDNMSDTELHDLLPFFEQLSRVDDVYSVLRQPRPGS

Sequence of Cytochrome P450 2C9 (P11712 whole entry): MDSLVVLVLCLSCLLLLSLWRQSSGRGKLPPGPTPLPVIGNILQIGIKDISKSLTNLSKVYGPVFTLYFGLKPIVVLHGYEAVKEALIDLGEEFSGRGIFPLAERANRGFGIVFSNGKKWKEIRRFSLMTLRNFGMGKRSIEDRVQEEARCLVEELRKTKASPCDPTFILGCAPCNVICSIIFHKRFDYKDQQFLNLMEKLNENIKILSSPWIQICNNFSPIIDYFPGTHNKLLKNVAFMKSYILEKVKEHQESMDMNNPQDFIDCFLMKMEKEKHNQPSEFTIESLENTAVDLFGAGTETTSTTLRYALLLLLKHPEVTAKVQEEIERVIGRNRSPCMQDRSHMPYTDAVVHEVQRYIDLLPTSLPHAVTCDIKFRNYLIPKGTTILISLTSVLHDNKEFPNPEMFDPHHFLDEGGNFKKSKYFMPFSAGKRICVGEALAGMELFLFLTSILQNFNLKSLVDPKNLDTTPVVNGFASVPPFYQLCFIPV
Sequence of DNA dC->dU-editing enzyme APOBEC-3A (P31941 whole entry): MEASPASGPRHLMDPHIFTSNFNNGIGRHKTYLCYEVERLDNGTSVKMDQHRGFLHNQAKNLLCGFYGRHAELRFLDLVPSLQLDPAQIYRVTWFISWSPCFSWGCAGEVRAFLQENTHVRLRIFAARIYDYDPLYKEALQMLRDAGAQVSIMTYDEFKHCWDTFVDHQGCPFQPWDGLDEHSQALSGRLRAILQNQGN
Sequence of Cytochrome P450 2C19 (P33261 whole entry): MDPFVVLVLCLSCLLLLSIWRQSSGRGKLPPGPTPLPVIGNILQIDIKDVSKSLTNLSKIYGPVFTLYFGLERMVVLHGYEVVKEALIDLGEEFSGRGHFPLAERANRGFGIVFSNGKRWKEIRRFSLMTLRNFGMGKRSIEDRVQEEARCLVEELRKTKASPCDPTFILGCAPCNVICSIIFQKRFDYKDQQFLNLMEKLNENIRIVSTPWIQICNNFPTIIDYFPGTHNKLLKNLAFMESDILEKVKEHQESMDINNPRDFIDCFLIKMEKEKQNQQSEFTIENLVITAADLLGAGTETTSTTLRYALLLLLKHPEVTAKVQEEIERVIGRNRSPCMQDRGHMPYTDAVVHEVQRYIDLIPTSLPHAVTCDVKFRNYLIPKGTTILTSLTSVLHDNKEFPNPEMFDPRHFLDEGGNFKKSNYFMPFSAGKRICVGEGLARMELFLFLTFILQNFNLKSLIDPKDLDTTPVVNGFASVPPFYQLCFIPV
Sequence of DNA dC->dU-editing enzyme APOBEC-3G (Q9HC16 whole entry, the tested form may be a part): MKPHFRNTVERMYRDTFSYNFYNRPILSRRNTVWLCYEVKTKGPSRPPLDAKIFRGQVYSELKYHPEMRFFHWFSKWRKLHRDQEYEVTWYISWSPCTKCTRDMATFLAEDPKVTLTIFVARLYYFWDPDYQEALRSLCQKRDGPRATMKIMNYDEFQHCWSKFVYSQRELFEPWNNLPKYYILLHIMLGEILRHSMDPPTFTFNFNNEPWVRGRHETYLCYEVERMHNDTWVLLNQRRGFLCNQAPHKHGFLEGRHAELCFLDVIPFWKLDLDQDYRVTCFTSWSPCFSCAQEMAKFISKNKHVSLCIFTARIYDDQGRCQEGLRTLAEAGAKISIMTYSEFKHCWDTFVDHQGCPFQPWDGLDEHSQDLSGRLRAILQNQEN
Sequence of Cytochrome P450 3A4 (P08684 whole entry): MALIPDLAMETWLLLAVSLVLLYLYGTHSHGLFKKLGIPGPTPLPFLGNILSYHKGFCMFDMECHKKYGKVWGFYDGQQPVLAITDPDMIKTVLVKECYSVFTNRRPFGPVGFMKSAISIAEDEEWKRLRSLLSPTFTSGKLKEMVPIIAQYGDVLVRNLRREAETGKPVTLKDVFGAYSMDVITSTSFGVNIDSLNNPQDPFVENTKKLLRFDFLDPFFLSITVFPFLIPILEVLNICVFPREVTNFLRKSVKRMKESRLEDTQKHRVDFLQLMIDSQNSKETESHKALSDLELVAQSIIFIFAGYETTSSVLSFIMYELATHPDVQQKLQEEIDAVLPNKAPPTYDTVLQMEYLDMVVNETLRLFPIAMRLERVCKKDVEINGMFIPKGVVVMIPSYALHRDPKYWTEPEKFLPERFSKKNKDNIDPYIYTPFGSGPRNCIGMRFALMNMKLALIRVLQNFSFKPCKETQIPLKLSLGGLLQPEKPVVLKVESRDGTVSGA

O=S(=O)(c1ccc(F)cc1)c1snnc1-c1ccccc1
EC50 (BJ [1]): 4.69 µM (inconclusive)
EC50 (BJ [2]): 6.66 µM (inconclusive)
EC50 (BJ [3]): 6.51 µM (inconclusive)
EC50 [4]: 7.55 µM (active)
AC50 [5]: 15.1 µM (active)
CC50 (Vero): 6.75 µM (active)
AC50 (Caspase-6): 6.26 µM (active)
AC50 [6]: 11.1 µM (active)
AC50 [7]: 46.5 µM (active)
AC50 [8]: 9.39 µM (active)
AC50 [9]: 5.8 µM (active)
AC50 [10]: 4.15 µM (active)

Cc1ccc(S(=O)(=O)N2CCC(C(=O)NCCCOC(C)C)CC2)cc1
AC50 (Cytochrome P450 3A4): 25.1 µM (inconclusive)
AC50 (Cytochrome P450 2C9): inconclusive

COc1ccc2c3c(n(C)c2c1)[C@@H](CO)N(CC1CCCCC1)CC31CCN(Cc2nccs2)CC1
AC50 [11]: 0.835 µM (active)
AC50 [12]: 1.12 µM (active)
AC50 [13]: 1.03 µM (active)
AC50 [14]: 0.891 µM (active)

Cc1ccccc1S(=O)(=O)Oc1ccc2ccc(O)cc2c1
AC50 (HeLa): 49.4 µM (active)

Cc1cccc(NC(=O)N(Cc2cc3cc(C)ccc3[nH]c2=O)CC2COCCO2)c1 (stereo not drawn)
IC50 (Aminopeptidase N): 45.9 µM (active)

CCc1nc2cc(Cc3ccc4[nH]c(CC)nc4c3)ccc2[nH]1
CC50 [15]: 15.5 µM (active)

O=C(N/N=C/C1CCCCC1)c1ccccn1
AC50 (Cytochrome P450 1A2): 17.8 µM (inconclusive)
AC50 (Cytochrome P450 2C9): inconclusive

Cc1ccc(Nc2nc(-c3c(C)nc4ncccn34)cs2)cc1
EC50 (BJ [2]): 60.6 µM (active)
IC50 [16]: 36.5 µM (inactive)
AC50 (Cytochrome P450 2C19): 0.0316 µM (inconclusive)
AC50 (Cytochrome P450 2C9): inconclusive

C=CCOc1ccc2c(c1)C(=NO)c1cc(OCC=C)ccc1-2
CC50 [17]: > 40 µM (active)
CC50 [15]: > 40 µM (active)

C[n+]1ccc(C(=O)Nc2ccccc2Cl)cc1
IC50 [18]: 2.01 µM (active)
IC50 [19]: 1.72 µM (active)
IC50 [20]: 7.68 µM (active)

CC(C)CNC(=O)CCCc1c[nH]c2ccccc12.O=C(O)C(=O)O
AC50 (Cytochrome P450 2C9): inconclusive
